Data on one compound can be found in US20110111417A1, “METHODS AND KITS FOR MONITORING THE EFFECTS OF IMMUNOMODULATORS ON ADAPTIVE IMMUNITY” (priority 2008, published 2011).

The test system of one test is germinal centers. Briefly: Immunohistochemistry of mouse spleen cryosections (Bcl-6 germinal centers, CD3 T cells), scored by pathologist. The test is classed as in vivo. From the text:
(§1) Female C57BL/6 mice (Charles River Laboratories, Bedford, Mass.) were used in these studies and treated with a beta-carboline, N-(6-chloro-7-methoxy-9H-beta-carbolin-8-yl)-2-methyl-nicotinamide (ML120B) following three different treatment regimens, A, B, and C. After the treatment, animals were euthanized and tissues were collected and frozen. Germinal centers were identified by immunohistochemistry (IHC) of cryosections (6 μm) using an antibody to mouse Bcl-6. T cells also were identified by IHC of serial cryosections, using an antibody to mouse CD3. The size and/or frequency of germinal centers and T cells were scored by a board-certified anatomic pathologist, using a 0 (low) to 4 (high) scale.
(§2) Mice were given a single oral dose of ML120B as indicated (n=4/group) for 6 hours. The level of mouse mu heavy chain germline transcript was measured in RNA isolated from serial cryosections by qRT-PCR.
(§3) Mice were given a single oral dose of ML120B as indicated (n=4/group) for 18 hours. The level of mouse mu heavy chain germline transcript was measured in RNA isolated from serial cryosections by qRT-PCR.
Mice were given twice daily oral dose of ML120B by gavage, as indicated (n=4/group) for four days. The level of mouse mu, gamma 3 and gamma 1 heavy chain germline transcript, AICDA transcript, gamma 1 & 2 circle transcript and 18S rRNA were measured in RNA isolated from serial cryosections by qRT-PCR. […] Germinal centers expressing Bcl-6 decreased 10-fold at 300 mg/kg (FIG. 3). Germline transcripts mu, gamma 3 and gamma 1 decreased from 10-1000-fold at 300 mg/kg (FIG. 3). Transcripts encoding AICDA decreased 100-1000-fold at 300 mg/kg (FIG. 3). Circle transcript gamma 1&2 decreased 10-fold at 100 mg/kg (FIG. 3).

The subject of test [1] is switch transcripts in mouse spleens. Briefly: qRT-PCR of switch transcripts in mouse spleens. The settings on record: spleen. The test is classed as in vivo.
Text: as §1
Total ribonucleic acid (RNA) was isolated from 10 spleen cryosections, each […], using the RNEASY® Universal Tissue 8000 Kit (QIAGEN Inc., Valencia, Calif.) on a BIOROBOT® 8000 Workstation (QIAGEN INC., Valencia, Calif.), and deoxyribonucleic acidase (DNASE)-treated according to the manufacturer's protocol. The purity and yield of the RNA were assessed via spectrophotometry from 220 to 750 nm using the NANODROP® ND-1000 (NANODROP Technologies, Wilmington, Del.). The integrity of the RNA was measured with the RNA 6000 NANO LABCHIP® Kit (AGILENT Technologies, Foster City, Calif.) on an AGILENT 2100 Bioanalyzer (AGILENT Technologies, Foster City, Calif.) and calculated using the RNA integrity number (RIN) algorithm (Schroeder et al. (2006) BMC Mol. Biol. 7:3). Deoxyribonucleic acidase-treated RNA was extracted from the samples and stored at −80° C. First strand complementary deoxyribonucleic acid (cDNA) synthesis was performed using a TAQMAN® Gold RT Master Mix (Applied Biosystems, Foster City, Calif.) according to the manufacturer's protocol, except that both oligothymidylic (oligo[dT]) and random hexamers were used for priming. The quality of synthesized cDNA was assessed by generating expression profiles of endogenous reference genes with a real-time polymerase chain reaction (PCR) system, the ABI PRISM® 7900HT Sequence Detection System (Applied Biosystems, Foster City, Calif.). Complementary deoxyribonucleic acid samples were stored at −20° C.
Sequences for all biomarkers (Table 1) were derived from mouse and human deoxyribonucleic acid (DNA) sequence (GENBANK® database [online] maintained by National Center for Biotechnology Information, Bethesda, Md.). Quantitative reverse-transcriptase polymerase chain reaction assays were performed on an ABI PRISM® 7900HT Sequence Detection System (Applied Biosystems, Inc. (Foster City, Calif.) using a SYBR-green detection system (Qiagen Inc., Valencia, Calif.). All quantitative assays were run using universal thermal cycling parameters: hold at 95° C. for 2 minutes to activate the DNA polymerase, then run 40 three-part cycles (95° C. for 20 seconds, 58° C. for 20 seconds, and 76° C. for 20 seconds). Data were analyzed using sequence detection system (SDS) software, Version 1.7 (Applied Biosystems, Inc. (Foster City, Calif.). […] From each amplification plot, a threshold cycle (Ct) value was calculated. […] The Ct values were exported to an EXCEL® (MICROSOFT Corp., Redmond, Wash.) spreadsheet and relative expression (x) was calculated as shown in equation 2.
as §2, §3
Mice were given twice daily oral dose of ML120B by gavage, as indicated (n=4/group) for four days. The level of mouse mu, gamma 3 and gamma 1 heavy chain germline transcript, AICDA transcript, gamma 1 & 2 circle transcript and 18S rRNA were measured in RNA isolated from serial cryosections by qRT-PCR. […]
On the technique in general: Real-time PCR tracks product formation cycle by cycle.

[2] abbreviates: single oral dose 300 mg/kg, 18 hours.
Where [3] appears, read: single oral dose, within first 6 hours.
Where [4] appears, read: twice daily oral 300 mg/kg, four days.

Consider `COc1c(Cl)cc2c([nH]c3cnccc32)c1NC(=O)c1cccnc1C` [ML120B, N-(6-chloro-7-methoxy-9H-beta-carbolin-8-yl)-2-methyl-nicotinamide], for which the “reduction in germinal centers” value in the test on germinal centers (setting [2]) worked out at 10 fold. For the same compound, the “frequency of T cells” value with germinal centers (single oral dose, 6 hours) was “remained unchanged”; in the test on germinal centers (single oral dose, 18 hours), “remained unchanged”. In addition, the “decrease in frequency of germinal centers” value in the test with germinal centers (setting [3]) came out at 50%. Besides, the “decrease in germinal centers expressing Bcl-6” value in the test with germinal centers (setting [4]) is listed as 10 fold. Moreover, the “reduction in mu germline transcripts” value in test [1] (setting [2]) was 1000 fold. The “level of 18S rRNA” value in test [1] (single oral dose, 18 hours) was “remained unchanged”; in test [1] (twice daily oral, four days), “remained unchanged”. For the same compound, the “decrease in level of mu germline transcripts” value in test [1] (setting [3]) is 50%. Further, the “decrease in circle transcript gamma 1&2” value in test [1] (twice daily oral 100 mg/kg, four days) amounted to 10 fold. In test [1] (setting [4]), the “decrease in germline transcripts mu, gamma 3 and gamma 1” value was 10-1000 fold. The “decrease in transcripts encoding AICDA” value in test [1] (setting [4]) is 100-1000 fold.
